Values belong to the molecule of their own block, whether it stands above or below them. Activity calls are given as the source filed them. The rule behind the calls is not given here.
Assays:
[1] = molecular target: Egl nine homolog 1 (Homo sapiens) (UniProt Q9GZT9); test: Photoactivated inhibition of PHD2 in human Hep3B cells assessed as increase in HIF-2alpha level in nucleus in presence of light irradiation for 20 mins measured after 10 hrs by Western blot analysis; assay type: cell-based
[2] = Chemical stability in pH 7.4 PBS buffer at 50 uM measured over 24 hrs by HPLC analysis; assay type: physicochemical; details: pH 7.4, 24 h
[3] = Drug metabolism in pH 7.4 PBS assessed as light-mediated formation of N-(5-(1-(2-(4-chlorophenoxy)ethyl)-1H-1,2,3-triazol-4-yl)-3-hydroxypicolinoyl)glycine at 50 uM followed by laser irradiation by UV-Visible spectroscopy
[4] = Drug metabolism in pH 7.4 PBS assessed as light-mediated formation of N-(5-(1-(2-(4-chlorophenoxy)ethyl)-1H-1,2,3-triazol-4-yl)-3-hydroxypicolinoyl)glycine at 50 uM followed by laser irradiation for 5 mins by HPLC analysis
[5] = molecular target: Egl nine homolog 1 (Homo sapiens) (UniProt Q9GZT9); test: Photoactivated inhibition of PHD2 in human Hep3B cells assessed as stabilization of HIFalpha by measuring upregulation of EPO gene expression at 50 uM in presence of light irradiation for 1 to 30 mins by qRT-PCR analysis; assay type: cell-based
[6] = molecular target: Egl nine homolog 1 (Homo sapiens) (UniProt Q9GZT9); test: Photoactivated inhibition of PHD2 in HEK293 cells harboring firefly luciferase gene and renilla luciferase gene assessed as stabilization of HIF-alpha at 100 uM using […] under light irradiation for 1 to 30 mins and measured after 24 hrs by chemiluminescence assay; assay type: cell-based
[7] = molecular target: Egl nine homolog 1 (Homo sapiens) (UniProt Q9GZT9); test: Photoactivated inhibition of PHD2 (181 to 426 residues) (unknown origin) at 1.23 uM using FITC-HIF1alpha (556 to 574 residues) as substrate incubated for 60 mins using laser irradiated compound at 405 nm light for >20 mins by fluorescence polarization assay
[8] = Drug metabolism in pH 7.4 PBS assessed as light-mediated formation of 7-(diethylamino)-4-(hydroxymethyl)-2H-chromen-2-one at 50 uM followed by laser irradiation by UV-Visible spectroscopy
HEK293 = test: Cytotoxicity against HEK293 cells at 100 uM after 72 hrs by MTT assay; assay type: cell-based; details: human, hek293, 72 h
[9] = Drug metabolism in pH 7.4 PBS assessed as light-mediated formation of N-(5-(1-(2-(4-chlorophenoxy)ethyl)-1H-1,2,3-triazol-4-yl)-3-hydroxypicolinoyl)glycine at 50 uM followed by laser irradiation for 30 secs to 20 mins by UV-Visible spectroscopy
[10] = molecular target: Egl nine homolog 1 (Homo sapiens) (UniProt Q9GZT9); test: Photoactivated inhibition of PHD2 in human Hep3B cells assessed as stabilization of HIFalpha by measuring upregulation of EPO gene expression at 50 uM in presence of light irradiation for >20 mins by qRT-PCR analysis; assay type: cell-based
Hep 3B2 = test: Cytotoxicity against human Hep3B cells at 100 uM after 72 hrs by MTT assay; assay type: cell-based; details: hep 3b2, 72 h
[11] = Drug metabolism in pH 7.4 PBS assessed as light-mediated formation of N-(5-(1-(2-(4-chlorophenoxy)ethyl)-1H-1,2,3-triazol-4-yl)-3-hydroxypicolinoyl)glycine at 50 uM followed by laser irradiation for 9 mins by HPLC analysis
[12] = Drug metabolism in pH 7.4 PBS assessed as light-mediated formation of N-(5-(1-(2-(4-chlorophenoxy)ethyl)-1H-1,2,3-triazol-4-yl)-3-hydroxypicolinoyl)glycine at 50 uM followed by laser irradiation for 2 mins by HPLC analysis
[13] = molecular target: Egl nine homolog 1 (Homo sapiens) (UniProt Q9GZT9); test: Photoactivated inhibition of PHD2 in human Hep3B cells assessed as increase in HIF-1alpha level in presence of light irradiation for 1 to 20 mins measured after 10 hrs by Western blot analysis; assay type: cell-based
L02 = test: Cytotoxicity against human L02 cells at 100 uM after 72 hrs by MTT assay; assay type: cell-based; details: l02, 72 h
[14] = Stability in human plasma assessed as compound remaining at […] measured at 8 hrs by HPLC analysis; assay type: ADME, cell-free; details: read-out: Stability
[15] = molecular target: Egl nine homolog 1 (Homo sapiens) (UniProt Q9GZT9); test: Photoactivated inhibition of PHD2 in human Hep3B cells assessed as increase in HIF-2alpha level in presence of light irradiation for 1 to 20 mins measured after 10 hrs by Western blot analysis; assay type: cell-based
[16] = molecular target: Egl nine homolog 1 (Homo sapiens) (UniProt Q9GZT9); test: Photoactivated inhibition of PHD2 (181 to 426 residues) (unknown origin) using FITC-HIF1alpha (556 to 574 residues) as substrate incubated for 60 mins using laser irradiated compound at 405 nm light for 30 secs to 30 mins by fluorescence polarization assay
[17] = Stability in rat plasma assessed as compound remaining at […] measured at 8 hrs by HPLC analysis; assay type: ADME, cell-free; details: read-out: Stability
[18] = Drug metabolism in pH 7.4 PBS assessed as light-mediated formation of N-(5-(1-(2-(4-chlorophenoxy)ethyl)-1H-1,2,3-triazol-4-yl)-3-hydroxypicolinoyl)glycine at 50 uM followed by laser irradiation for 30 secs by HPLC analysis
[19] = Drug metabolism in pH 7.4 PBS assessed as light-mediated formation of 7-(diethylamino)-4-(hydroxymethyl)-2H-chromen-2-one at 50 uM followed by laser irradiation by HPLC analysis
[20] = Drug metabolism in pH 7.4 PBS assessed as light-mediated formation of N-(5-(1-(2-(4-chlorophenoxy)ethyl)-1H-1,2,3-triazol-4-yl)-3-hydroxypicolinoyl)glycine at 50 uM followed by laser irradiation for 20 mins by HPLC analysis
[21] = Drug metabolism in pH 7.4 PBS assessed as light-mediated formation of N-(5-(1-(2-(4-chlorophenoxy)ethyl)-1H-1,2,3-triazol-4-yl)-3-hydroxypicolinoyl)glycine at 50 uM followed by laser irradiation by HPLC analysis
[22] = Drug metabolism in pH 7.4 PBS assessed as light-mediated formation of N-(5-(1-(2-(4-chlorophenoxy)ethyl)-1H-1,2,3-triazol-4-yl)-3-hydroxypicolinoyl)glycine at 50 uM followed by laser irradiation for 15 mins by HPLC analysis
[23] = molecular target: Egl nine homolog 1 (Homo sapiens) (UniProt Q9GZT9); test: Photoactivated inhibition of PHD2 (181 to 426 residues) (unknown origin) at 1.23 uM using FITC-HIF1alpha (556 to 574 residues) as substrate incubated for 60 mins using laser irradiated compound at 405 nm light for 20 mins by fluorescence polarization assay relative to control
HUVEC = test: Cytotoxicity against HUVEC cells at 100 uM after 72 hrs by MTT assay; assay type: cell-based; details: human
[24] = molecular target: Egl nine homolog 1 (Homo sapiens) (UniProt Q9GZT9); test: Photoactivated inhibition of PHD2 in HEK293 cells harboring firefly luciferase gene and renilla luciferase gene assessed as spatiotemporal dependent accumulation of hypoxia response element level at 100 uM using […] under laser light irradiation after 24 hrs by chemiluminescence assay; assay type: cell-based
[25] = molecular target: Egl nine homolog 1 (Homo sapiens) (UniProt Q9GZT9); test: Photoactivated inhibition of PHD2 in human Hep3B cells assessed as increase in HIF-1alpha level in nucleus in presence of light irradiation for 20 mins measured after 10 hrs by Western blot analysis; assay type: cell-based
[26] = molecular target: Egl nine homolog 1 (Homo sapiens) (UniProt Q9GZT9); test: Photoactivated inhibition of PHD2 (181 to 426 residues) (unknown origin) at 1.23 uM using FITC-HIF1alpha (556 to 574 residues) as substrate incubated for 60 mins using laser irradiated compound at 405 nm light by fluorescence polarization assay
[27] = Drug metabolism in pH 7.4 PBS assessed as light-mediated formation of N-(5-(1-(2-(4-chlorophenoxy)ethyl)-1H-1,2,3-triazol-4-yl)-3-hydroxypicolinoyl)glycine at 50 uM followed by laser irradiation for 120 mins by HPLC analysis

Sequence of Egl nine homolog 1 (Homo sapiens) (Q9GZT9 2-426 limits assumed): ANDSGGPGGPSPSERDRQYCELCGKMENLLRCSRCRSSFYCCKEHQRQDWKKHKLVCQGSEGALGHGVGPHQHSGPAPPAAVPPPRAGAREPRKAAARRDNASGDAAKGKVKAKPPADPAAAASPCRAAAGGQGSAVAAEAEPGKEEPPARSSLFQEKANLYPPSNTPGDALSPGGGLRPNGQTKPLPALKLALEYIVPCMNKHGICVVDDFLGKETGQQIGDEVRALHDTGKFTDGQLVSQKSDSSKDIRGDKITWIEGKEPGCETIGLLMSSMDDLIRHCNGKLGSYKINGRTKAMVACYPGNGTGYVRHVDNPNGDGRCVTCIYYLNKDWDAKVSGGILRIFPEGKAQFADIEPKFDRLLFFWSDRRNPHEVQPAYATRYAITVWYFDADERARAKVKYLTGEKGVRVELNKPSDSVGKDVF

inhibition [1]: Active
Stability [2]: Stable
inhibition [5]: Active
inhibition [6]: Active
inhibition [7]: Active
inhibition [10]: Active
inhibition [13]: Active
remaining at 8 h [14]: > 90%
inhibition [15]: Active
inhibition [16]: Active
remaining at 8 h [17]: > 90%
inhibition [23]: 95.2%
inhibition [24]: Active
inhibition [25]: Active
Compound: CCN(CC)c1ccc2c(COC(=O)CNC(=O)c3ncc(-c4cn(CCOc5ccc(Cl)cc5)nn4)cc3O)cc(=O)oc2c1
Drug metabolism [3]: Metabolite detected
Drug metabolism [4]: 49%
Drug metabolism [8]: Metabolite detected
Activity (HEK293): Non-Toxic
Drug metabolism [9]: Metabolite detected
Activity (Hep 3B2): Non-Toxic
Drug metabolism [11]: 68%
Drug metabolism [12]: 16%
Activity (L02): Non-Toxic
Drug metabolism [18]: 5%
Drug metabolism [19]: Metabolite detected
Drug metabolism [20]: 100%
Drug metabolism [21]: Metabolite detected
Drug metabolism [22]: 82%
Activity (HUVEC): Non-Toxic

Compound: O=C(O)CNC(=O)c1ncc(-c2cn(CCOc3ccc(Cl)cc3)nn2)cc1O
Activity (HEK293): Non-Toxic
Activity (Hep 3B2): Non-Toxic
Activity (L02): Non-Toxic
Activity (HUVEC): Non-Toxic

inhibition [26]: inactive
Compound: CCN(CC)c1ccc2c(COc3cc(-c4cn(CCOc5ccc(Cl)cc5)nn4)cnc3C(=O)NCC(=O)O)cc(=O)oc2c1
Drug metabolism [27]: Metabolite not detected

— ChEMBL document CHEMBL4373690, “Photoactivatable Prolyl Hydroxylase 2 Inhibitors for Stabilizing the Hypoxia-Inducible Factor with Light” (J Med Chem, 2019)
